Consider 35 compounds from ChEMBL document CHEMBL3621069 (Bioorg Med Chem Lett, 2015).

Converted amounts (≈) assume the structure as drawn.

For series [1], the target named is T1, Tyrosine-protein kinase SYK (Homo sapiens, UniProt P43405). Kind of series: Inhibition of purified full-length human SYK pre-incubated for 30 mins at room temperature before Ulight-TK peptide substrate addition and measured 1 hr after substrate addition by cell free kinase assay.
Series [2] is described as follows: Apparent permeability in human Caco2 cells. Particulars: Caco-2. Format: ADME, cell-based.
A short description of series [3]: Kinetic solubility of the compound. In kind it is physicochemical. Particulars: read-out: Kinetic_solubility.
The target of the next series is Cytochrome P450 3A4 (Homo sapiens, UniProt P08684). Nature of the series: Inhibition of CYP3A4 (unknown origin). In kind it is ADME.
Chain of Cytochrome P450 3A4 (P08684 whole entry): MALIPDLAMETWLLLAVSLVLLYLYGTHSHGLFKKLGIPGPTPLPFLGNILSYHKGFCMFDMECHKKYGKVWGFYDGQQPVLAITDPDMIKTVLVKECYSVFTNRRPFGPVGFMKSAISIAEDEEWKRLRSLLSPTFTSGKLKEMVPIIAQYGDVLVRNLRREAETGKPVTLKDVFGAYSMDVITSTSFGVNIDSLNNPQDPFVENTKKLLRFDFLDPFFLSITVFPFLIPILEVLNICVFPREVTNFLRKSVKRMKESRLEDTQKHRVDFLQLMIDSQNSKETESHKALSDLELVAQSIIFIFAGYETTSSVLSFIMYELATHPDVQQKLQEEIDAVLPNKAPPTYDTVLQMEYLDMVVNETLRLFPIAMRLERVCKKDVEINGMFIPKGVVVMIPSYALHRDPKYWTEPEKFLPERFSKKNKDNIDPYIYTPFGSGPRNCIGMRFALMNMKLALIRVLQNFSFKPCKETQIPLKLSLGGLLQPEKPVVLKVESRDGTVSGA
The nature of series [4]: AUClast in Sprague-Dawley rat at 10 mg/kg. Format: ADME, organism-based. Particulars: in vivo. Set-up: dose 10 mg/kg, time 0 - last.
Series [5] can be described thus: Oral bioavailability in Sprague-Dawley rat at 10 mg/kg. Format: ADME, organism-based. The following applies: in vivo.
A short description of series [6]: Terminal half life in Sprague-Dawley rat at 10 mg/kg, po. Particulars: in vivo, read-out: beta t1/2 (converted). In kind it is ADME, organism-based.
In series [7] the target is T2, Tyrosine-protein kinase JAK3 (Homo sapiens, UniProt P52333).
T2 sequence (P52333 whole entry): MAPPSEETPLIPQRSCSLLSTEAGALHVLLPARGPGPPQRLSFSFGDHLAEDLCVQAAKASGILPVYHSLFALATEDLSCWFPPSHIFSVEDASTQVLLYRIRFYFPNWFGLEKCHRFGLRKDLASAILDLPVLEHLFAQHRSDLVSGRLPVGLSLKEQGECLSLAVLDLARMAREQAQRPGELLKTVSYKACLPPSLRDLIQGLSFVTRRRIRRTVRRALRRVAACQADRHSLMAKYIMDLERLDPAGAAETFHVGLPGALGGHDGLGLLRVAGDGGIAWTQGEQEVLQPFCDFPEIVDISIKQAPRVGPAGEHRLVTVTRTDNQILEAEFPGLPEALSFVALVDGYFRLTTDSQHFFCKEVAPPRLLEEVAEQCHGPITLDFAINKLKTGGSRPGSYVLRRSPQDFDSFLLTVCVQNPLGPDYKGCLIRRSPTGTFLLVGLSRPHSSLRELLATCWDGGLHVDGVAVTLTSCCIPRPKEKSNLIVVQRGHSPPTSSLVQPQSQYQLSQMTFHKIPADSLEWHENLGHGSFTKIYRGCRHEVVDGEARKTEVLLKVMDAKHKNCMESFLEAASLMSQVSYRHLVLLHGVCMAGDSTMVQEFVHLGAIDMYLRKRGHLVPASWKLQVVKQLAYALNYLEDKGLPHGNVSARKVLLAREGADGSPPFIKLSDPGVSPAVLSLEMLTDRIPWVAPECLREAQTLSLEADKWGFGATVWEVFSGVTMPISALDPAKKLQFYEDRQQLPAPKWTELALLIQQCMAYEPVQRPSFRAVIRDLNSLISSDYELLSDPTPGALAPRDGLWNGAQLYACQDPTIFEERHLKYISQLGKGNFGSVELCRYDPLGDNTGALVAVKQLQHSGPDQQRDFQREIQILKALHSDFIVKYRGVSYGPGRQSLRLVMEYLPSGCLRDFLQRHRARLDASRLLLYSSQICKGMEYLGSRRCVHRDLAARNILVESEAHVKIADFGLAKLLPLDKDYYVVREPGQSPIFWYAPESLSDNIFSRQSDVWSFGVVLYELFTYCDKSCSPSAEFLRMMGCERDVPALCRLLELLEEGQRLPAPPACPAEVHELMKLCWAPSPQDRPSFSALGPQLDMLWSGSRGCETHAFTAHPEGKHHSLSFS
Nature of the series: Inhibition of JAK3 (unknown origin) pre-incubated for 30 mins at room temperature before substrate addition and measured 1 hr after substrate addition by cell free kinase assay.

Series [8] is described as follows: Clearance in Sprague-Dawley rat at 10 mg/kg, po. Particulars: in vivo. In kind it is ADME, organism-based.
The test system of a further series is Rattus norvegicus. Kind of series: Volume of distribution at steady state in Sprague-Dawley rat at 10 mg/kg, po. The following applies: in vivo. In kind it is ADME, organism-based.
The target of series [9] is T1, Tyrosine-protein kinase SYK. Kind of series: Inhibition of SYK-mediated TNFalpha production in human IgG-stimulated human THP1 cells incubated for 18 hrs by ELISA method. Format: cell-based, THP-1.
Series [10] is described as follows: Apparent permeability from basolateral to apical side in human Caco2 cells. In kind it is ADME, cell-based. The following applies: Caco-2. On the technique in general: Caco-2 cells form a polarised layer with tight junctions and transporters.
Series [11] in a line: Stability in human liver microsomes. Format: ADME. Particulars: read-out: Stability. A general note: Liver microsomes are a subcellular fraction often used to study metabolism.
Series [12] in a line: Apparent permeability from apical to basolateral side in human Caco2 cells. The following applies: Caco-2. Format: ADME, cell-based.
Series [13] has as its target T3, Tyrosine-protein kinase ZAP-70 (Homo sapiens, UniProt P43403).
T3 sequence (P43403 whole entry): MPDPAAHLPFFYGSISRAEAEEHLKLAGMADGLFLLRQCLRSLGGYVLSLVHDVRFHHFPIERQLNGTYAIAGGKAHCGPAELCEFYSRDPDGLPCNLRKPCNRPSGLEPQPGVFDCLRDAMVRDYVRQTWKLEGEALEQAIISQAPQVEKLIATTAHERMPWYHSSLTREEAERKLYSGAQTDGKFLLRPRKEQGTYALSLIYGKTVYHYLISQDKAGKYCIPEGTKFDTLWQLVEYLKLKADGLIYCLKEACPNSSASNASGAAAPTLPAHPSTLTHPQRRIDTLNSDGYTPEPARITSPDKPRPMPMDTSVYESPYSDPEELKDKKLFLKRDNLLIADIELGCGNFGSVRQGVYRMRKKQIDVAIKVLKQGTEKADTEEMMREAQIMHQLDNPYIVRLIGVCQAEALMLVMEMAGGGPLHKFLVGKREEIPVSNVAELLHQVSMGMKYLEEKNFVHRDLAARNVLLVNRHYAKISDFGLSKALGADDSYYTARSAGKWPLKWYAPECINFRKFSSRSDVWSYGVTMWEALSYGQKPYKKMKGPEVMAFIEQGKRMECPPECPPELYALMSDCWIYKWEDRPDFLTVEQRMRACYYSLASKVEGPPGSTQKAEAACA
Kind of series: Inhibition of purified full-length human ZAP70 pre-incubated for 30 mins at room temperature before UlighTM-PolyGT peptide substrate addition and measured 1 hr after substrate addition by cell free kinase assay.

The next series has as its system Plasma. Kind of series: Unbound fraction in human plasma. Format: ADME, cell-free.
Series [14] has as its target Proto-oncogene tyrosine-protein kinase receptor Ret (Homo sapiens, UniProt P07949). Nature of the series: Inhibition of human RET pre-incubated for 30 mins at room temperature before substrate addition and measured 1 hr after substrate addition by cell free kinase assay.
Series [15] is described as follows: Inhibition of CYP450 (unknown origin). In kind it is ADME, Homo sapiens.

Chain of Proto-oncogene tyrosine-protein kinase receptor Ret (P07949 whole entry): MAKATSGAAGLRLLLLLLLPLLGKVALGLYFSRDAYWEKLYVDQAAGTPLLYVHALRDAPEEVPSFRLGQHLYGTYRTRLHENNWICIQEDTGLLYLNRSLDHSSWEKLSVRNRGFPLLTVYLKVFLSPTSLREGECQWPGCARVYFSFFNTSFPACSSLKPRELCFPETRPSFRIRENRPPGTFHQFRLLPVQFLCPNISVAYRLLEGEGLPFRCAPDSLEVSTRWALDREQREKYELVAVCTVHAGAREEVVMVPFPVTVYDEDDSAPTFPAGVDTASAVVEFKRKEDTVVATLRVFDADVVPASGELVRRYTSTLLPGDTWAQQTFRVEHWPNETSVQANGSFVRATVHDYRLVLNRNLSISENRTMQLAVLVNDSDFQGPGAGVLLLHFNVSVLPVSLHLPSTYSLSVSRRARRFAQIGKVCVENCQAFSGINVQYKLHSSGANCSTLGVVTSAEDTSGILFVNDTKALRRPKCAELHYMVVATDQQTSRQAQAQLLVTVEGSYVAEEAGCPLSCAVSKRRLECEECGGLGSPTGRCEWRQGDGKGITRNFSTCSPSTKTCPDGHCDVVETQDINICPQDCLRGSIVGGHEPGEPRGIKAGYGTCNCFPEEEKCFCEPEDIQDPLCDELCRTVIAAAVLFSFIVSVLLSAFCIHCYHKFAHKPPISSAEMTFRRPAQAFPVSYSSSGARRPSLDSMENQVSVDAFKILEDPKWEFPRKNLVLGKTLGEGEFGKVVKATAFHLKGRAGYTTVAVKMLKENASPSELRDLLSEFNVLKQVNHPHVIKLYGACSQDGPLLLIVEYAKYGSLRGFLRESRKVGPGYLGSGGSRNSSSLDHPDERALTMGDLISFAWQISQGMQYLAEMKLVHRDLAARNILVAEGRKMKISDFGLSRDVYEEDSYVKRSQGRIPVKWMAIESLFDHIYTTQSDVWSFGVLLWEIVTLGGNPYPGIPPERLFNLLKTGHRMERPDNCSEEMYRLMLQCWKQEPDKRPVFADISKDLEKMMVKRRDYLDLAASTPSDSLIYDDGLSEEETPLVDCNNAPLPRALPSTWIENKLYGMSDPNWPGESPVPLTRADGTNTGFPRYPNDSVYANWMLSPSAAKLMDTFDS

With `Cc1nn(-c2nc(Nc3ccc4c(c3)c(C#N)nn4C)ncc2F)cc1CN1CC(O)C1`, in series [1], the IC50 (as a rule, the concentration at which inhibition is half-maximal) is 5990 nM. The same measure, in the same setting: the value for `Cc1cc(C)cc(Nc2nccc(-n3cc(CN4CC(O)C4)c(C)n3)n2)c1` was 7.3 nM; that for `Cc1cc(C)cc(Nc2nccc(-n3cc(CN4CC[C@@H](O)C4)c(C4CC4)c3)n2)c1` was 3.7 nM.

For the compound `Cc1cn(-c2ccnc(Nc3cc(C)c(OCC(=O)N4CCCC4)c(C)c3)n2)cc1CN1CC[C@@H](O)C1`, in series [1], the IC50 is 14.4 nM. The same measure, in the same setting: to `Cc1cc(C)cc(Nc2nccc(-n3cc(C)c(CN(C)C)c3)n2)c1` belongs 6.2 nM. `Cc1cc(Nc2nccc(-n3cc(CN4CC(O)C4)c(C)n3)n2)cc(C)c1OCCN1CCCC1` yielded an IC50 in [1] of 8.9 nM. Same read-out and setting: to `COc1cc(Nc2nccc(-n3cc(C)c(CN4CC(O)C4)c3)n2)cc(OC)c1OC` belongs 38 nM; to `Cc1nn(-c2ccnc(Nc3ccccc3)n2)cc1CN1CC[C@@H](O)C1`, 871 nM; to `COc1cc(Nc2nccc(-n3cc(C)c(CN4CC(O)C4)c3)n2)cc(OC)c1OCC(=O)N1CCCC1`, 61.4 nM. The same measure, in the same setting: to `Cc1nn(-c2ccnc(Nc3ccc4c(cnn4C4CC4)c3)n2)cc1CN1CC(O)C1` belongs 8 nM. As for `Cc1cn(-c2ccnc(Nc3cc(C)c(OCCO)c(C)c3)n2)cc1CN1CC[C@@H](O)C1`, in series [2], the Papp (commonly a coefficient for how fast a substance crosses the barrier) is 10.3 ×10⁻⁶ cm/s. Also, the solubility kinetic in [3] is 120 µM (≈ 52.5 µg/mL). The values for the half-maximal inhibitory concentration (IC50) (in [1]; against Cytochrome P450 3A4) were 17.3 nM and more than 10000 nM, respectively. On to `Cc1cc(C)cc(Nc2nccc(-n3cc(C)c(CN4CC[C@@H](O)C4)c3)n2)c1`, for which the AUC(0-t) (as a rule, the area under the concentration-time curve up to a stated or last time point) in series [4] was found to be 6240 ng·h/mL. In series [5], the bioavailability (commonly the share of a dose that reaches the circulation, judged against a reference dose that is usually intravenous) came out at 7.6%. Moreover, the half-life in series [6] is 2.6 h. In series [2], the apparent permeability coefficient (Papp) worked out at 2 ×10⁻⁶ cm/s. Also, the IC50 in series [7] turned out to be 349 nM; in [9], 77 nM; in [1], 2.3 nM; against Cytochrome P450 3A4, 5100 nM. The apparent clearance (CL/F) (commonly the apparent clearance, not corrected for the fraction that reaches the circulation) in [8] came out at 43 mL/min/kg. In [3], the solubility kinetic turned out to be 70 µM (≈ 26.4 µg/mL). The compound also came in with a Vdss with Rattus norvegicus of 4.3 L/kg. With `Cc1cc(C)cc(Nc2nccc(-n3cc(C)c(CN4CC[C@@H](N)C4)c3)n2)c1`, in series [1], the IC50 was 13.2 nM. Same read-out and setting: the value for `Cc1cn(-c2ccnc(Nc3cc(C)c(OS(C)(=O)=O)c(C)c3)n2)cc1CN1CC(O)C1` was 6.3 nM; that for `Cc1cc(C)cc(Nc2nccc(-n3cc(CN4CC[C@@H](O)C4)c(C)n3)n2)c1` was 3.5 nM.

In series [4], `COc1c(C)cc(Nc2nccc(-n3cc(C)c(CN4CC(O)C4)c3)n2)cc1C` displayed an area under the curve AUC(0-t) of 550 ng·h/mL. The same compound registered a bioavailability in [5] of 7.8%. For the same compound, the half-life in series [6] is 1.2 h. In series [8], the CL/F is 70 mL/min/kg. The compound also displayed a Vdss in the series on Rattus norvegicus of 5.6 L/kg. The IC50 in series [1] is 5.7 nM.

`Cc1nn(-c2nc(Nc3ccc4c(cnn4C)c3)ncc2F)cc1CN1CC(O)C1` came in with an IC50 in series [1] of 326 nM. This counts as sub-micromolar. The same measure, in the same setting: to `COc1cc(Nc2nccc(-n3cc(C)c(CN(C)C)c3)n2)cc(OC)c1OC` belongs 71.8 nM. On the same count and under the same terms, the value for `Cc1cc(C)cc(Nc2nccc(-n3cc(C)c(CN4CCC(F)(F)CC4)c3)n2)c1` was 307 nM. Still for that read-out and setting: the value for `Cc1nn(-c2ccnc(Nc3ccc4c(ccn4C)c3)n2)cc1CN1CC(O)C1` was 36.6 nM; that for `Cc1nn(-c2ccnc(Nc3ccc4c(c3)CCN4C)n2)cc1CN1CC(O)C1` was 20.4 nM.

As to `Cc1nn(-c2ccnc(Nc3ccc4c(c3)c(Cl)c(C)n4C)n2)cc1CN1CC[C@@H](O)C1`, the basolateral-to-apical permeability (Papp B→A) (in general, how fast a substance crosses the layer from the basolateral side) in series [10] was 7.3 ×10⁻⁶ cm/s. Further, the half-life in series [11] is more than 1 h. Moreover, the IC50 is 478 nM in series [7], 73400 nM in [13], 9590 nM in [14] and more than 10000 nM in series [15]. For the same compound, the Papp A→B (usually the apparent permeability from the apical to the basolateral side of a cell layer) in series [12] stood at 6.2 ×10⁻⁶ cm/s. Besides, the Fu with Plasma is reported as less than 0.4%. Compound `Cc1cc(C)cc(Nc2nccc(-n3cc(C)c(CN4CC(O)C4)c3)n2)c1` came in with a half-maximal inhibitory concentration (IC50) in series [1] of 5.4 nM. As for `CCn1ccc2cc(Nc3nccc(-n4cc(CN5CC(O)C5)c(C5CC5)n4)n3)ccc21`, the IC50 in series [1] was determined as 9.2 nM. The same measure, in the same setting: the value for `Cc1cn(-c2ccnc(Nc3cc(C)c(Oc4ccccc4)c(C)c3)n2)cc1CN1CC(O)C1` was 144 nM; that for `Cc1cn(-c2ccnc(Nc3cc(C)c(OCC(=O)N4CCCC4)c(C)c3)n2)cc1CN1CC(O)C1` was 7.3 nM; that for `Cc1cn(-c2ccnc(Nc3cc(C)c(OCCN4CCCC4)c(C)c3)n2)cc1CN1CC(O)C1` was 11.5 nM. On the same count and under the same terms, the value for `Cc1cn(-c2ccnc(Nc3cc(C)c(Oc4ccccc4)c(C)c3)n2)cc1CN1CC[C@@H](O)C1` was 377 nM; that for `Cc1cn(-c2ccnc(Nc3cc(C)c(OCCO)c(C)c3)n2)cc1CN1CC(O)C1` was 5 nM; that for `COc1cc(Nc2nccc(-n3cc(C)c(CN4CC[C@@H](O)C4)c3)n2)cc(OC)c1OCC(=O)N1CCCC1` was 101 nM.

Turning to `CCn1ccc2cc(Nc3nccc(-n4cc(CN5CC(O)C5)c(C)n4)n3)ccc21`, the IC50 in series [1] was determined as 22.8 nM. Same read-out and setting: to `Cc1cc(C)cc(Nc2nccc(-n3cc(C)c(CN4CC[C@H](C(=O)O)C4)c3)n2)c1` belongs 17.8 nM; to `Cc1cn(-c2ccnc(Nc3cc(C)c(OS(C)(=O)=O)c(C)c3)n2)cc1CN1CC[C@@H](O)C1`, 7.9 nM; to `Cc1cc(C)cc(Nc2nccc(-n3cc(CN4CC(O)C4)c(C4CC4)c3)n2)c1`, 1.9 nM. Same read-out and setting: to `Cc1cc(C)cc(Nc2nccc(-n3cc(CN4CCC(O)CC4)c(C)n3)n2)c1` belongs 39.1 nM.
